These results are taken from patent US10829458B2 (Araxes Pharma LLC, priority 2015, dated 2020).

The test addresses T1, KRAS G12C 1-169, his-tagged protein, GDP-loaded (Homo sapiens, UniProt P01116, G12C).
T1 construct: KRAS G12C 1-169, his-tagged protein, GDP-loaded
The experiment in a line: Biochemical assay: covalent modification of KRAS G12C measured by mass spectrometry (RapidFire/TOF or Q-Exactive). The conditions noted are these: covalent binding to KRAS G12C; compounds of structure (I). Put shortly:
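Covalent adduct formation read by intact-mass spectrometry (TOF or Q Exactive Plus, charge envelopes deconvoluted into modified and unmodified species) after formic acid quench. Reactions contained 2 μM GDP-bound KRAS G12C 1-169 (his-tag) in Hepes/NaCl/MgCl2 buffer plus 10, 30 or 100 μM final compound, held 30 min, 2 h or 24 h at room temperature.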
With `C=CC(=O)N1CCN(c2nc(N3CC(N(CC)CC)C3)nc3c(F)c(-c4c(C)ccc5[nH]ncc45)c(Cl)cc23)CC1` [Example I-144, 1-(4-(6-chloro-2-(3-(diethylamino)azetidin-1-yl)-8-fluoro-7-(5-methyl-1H-indazol-4-yl)quinazolin-4-yl)piperazin-1-yl) prop-2-en-1-one], the Binding % result was “+++ (+++ indicates binding activity greater than 90%)”.
`C=CC(=O)N1CCN(c2nc(OCCN3CC(F)(F)C3)nc3c(F)c(-c4c(C)ccc5[nH]ncc45)c(Cl)cc23)CC1` [Example I-145, 1-(4-(6-chloro-2-(2-(3,3-difluoro-azetidin-1-yl)ethoxy)-8-fluoro-7-(5-methyl-1H-indazol-4-yl)quinazolin-4-yl)piperazin-1-yl) prop-2-en-1-one]: the Binding % entry is recorded as “+++ (+++ indicates binding activity greater than 90%)”.
As to `C=CC(=O)N1CCN(c2nc(OCCN3CCC(F)(F)C3)nc3c(F)c(-c4c(C)ccc5[nH]ncc45)c(Cl)cc23)CC1` [Example I-146, 1-(4-(6-chloro-2-(2-(3,3-difluoro-pyrrolidin-1-yl)ethoxy)-8-fluoro-7-(5-methyl-1H-indazol-4-yl)quinazolin-4-yl)piperazin-1-yl) prop-2-en-1-one], the Binding % entry was “+++ (+++ indicates binding activity greater than 90%)”.
The result for `C=CC(=O)N1CCN(c2nc(N3CCCC3)nc3c(F)c(-c4c(O)cccc4F)c(Cl)cc23)CC1` [Example I-147, 1-(4-(6-chloro-8-fluoro-7-(2-fluoro-6-hydroxyphenyl)-2-(pyrrolidin-1-yl)quinazolin-4-yl)piperazin-1-yl)prop-2-en-1-one] reads “++ (++ indicates binding activity from 50 to 90%)”; that for `C=CC(=O)N1CCN(c2nc(N3CC4(COC4)C3)nc3c(F)c(-c4c(O)cccc4F)c(Cl)cc23)CC1` [Example I-148, 1-(4-(6-chloro-8-fluoro-7-(2-fluoro-6-hydroxyphenyl)-2-(2-oxa-6-azaspiro[3.3]heptan-6-yl)quinazolin-4-yl)piperazin-1-yl) prop-2-en-1-one], “+++ (+++ indicates binding activity greater than 90%)”.
`C=CC(=O)N1CCN(c2nc(N3CC(C)(N(C)C)C3)nc3c(F)c(-c4c(O)cccc4F)c(Cl)cc23)CC1` [Example I-149, 1-(4-(6-chloro-2-(3-(dimethyl-amino)-3-methyl-azetidin-1-yl)-8-fluoro-7-(2-fluoro-6-hydroxyphenyl)quinazolin-4-yl)piperazin-1-yl) prop-2-en-1-one]: the Binding % result was “+++ (+++ indicates binding activity greater than 90%)”.
Consider `C=CC(=O)N1CCN(c2nc(NCC3CCN(C4CC4)CC3)nc3c(F)c(-c4c(O)cccc4F)c(Cl)cc23)CC1` [Example I-150, 1-(4-(6-chloro-2-((1-cyclopropyl-piperidin-4-yl)methylamino)-8-fluoro-7-(2-fluoro-6-hydroxyphenyl)quinazolin-4-yl)piperazin-1-yl) prop-2-en-1-one], for which the Binding % result is “+++ (+++ indicates binding activity greater than 90%)”.
As for `C=CC(=O)N1CCN(c2nc(NCCN(CC)CC)nc3c(F)c(-c4c(O)cccc4F)c(Cl)cc23)CC1` [Example I-151, l-(4-(6-chloro-2-(2-(diethyl-amino)ethylamino)-8-fluoro-7-(2-fluoro-6-hydroxyphenyl)quinazolin-4-yl)piperazin-1-yl) prop-2-en-1-one], the Binding % result is recorded as “+++ (+++ indicates binding activity greater than 90%)”.
The result for `C=CC(=O)N1CCN(c2nc(N3CC(COC)C3)nc3c(F)c(-c4c(C)ccc5[nH]ncc45)c(Cl)cc23)CC1` [Example I-152, 1-(4-(6-chloro-8-fluoro-2-(3-(methoxy-methyl)azetidin-1-yl)-7-(5-methyl-1H-indazol-4-yl)quinazolin-4-yl)piperazin-1-yl) prop-2-en-1-one] reads “+++ (+++ indicates binding activity greater than 90%)”.
